Values of other authors in PMC2231820 (The Journal of General Physiology, 2000).

Target: T1, bovine rod (Brod) CNG channel, α homomultimer (Bos taurus, UniProt Q00194)
T1 sequence (Q00194 1-690): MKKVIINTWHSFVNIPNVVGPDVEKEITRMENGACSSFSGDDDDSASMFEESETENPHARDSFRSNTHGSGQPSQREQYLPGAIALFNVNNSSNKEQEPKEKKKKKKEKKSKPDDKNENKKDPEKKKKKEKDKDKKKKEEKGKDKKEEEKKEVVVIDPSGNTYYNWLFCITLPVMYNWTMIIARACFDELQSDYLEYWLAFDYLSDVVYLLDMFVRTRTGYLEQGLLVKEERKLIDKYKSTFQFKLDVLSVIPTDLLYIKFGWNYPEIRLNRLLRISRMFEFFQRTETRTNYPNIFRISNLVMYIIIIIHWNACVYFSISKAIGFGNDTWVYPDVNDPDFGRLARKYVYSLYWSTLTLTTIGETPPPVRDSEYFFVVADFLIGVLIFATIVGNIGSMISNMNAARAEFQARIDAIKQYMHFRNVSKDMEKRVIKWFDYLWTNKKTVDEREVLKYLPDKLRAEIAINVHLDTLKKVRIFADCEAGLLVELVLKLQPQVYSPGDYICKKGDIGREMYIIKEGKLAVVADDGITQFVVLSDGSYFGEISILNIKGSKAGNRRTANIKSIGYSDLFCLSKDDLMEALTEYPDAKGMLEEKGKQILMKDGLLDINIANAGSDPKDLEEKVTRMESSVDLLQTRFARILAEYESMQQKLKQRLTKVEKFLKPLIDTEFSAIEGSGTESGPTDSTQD
Conditions: saturating 2 mM cGMP, ref Crary et al. 2000; cited from earlier work

diacylglycerol [DAG]
DAG maximal percent inhibition (INmax): 100%
Hill coefficient n of DAG inhibition: 1.7
